The values below are quoted from earlier work in patent publication US20050004065A1, “Hypoxia regulated genes” (Quark Biotech, Inc., priority 1998, published 2005).

This data set deals with neuron cells. Conditions: in vitro; previously shown.

Take `C[C@H](CCCC(C)(C)O)[C@H]1CC[C@H]2[C@@H]3CC=C4C[C@@H](O)CC[C@]4(C)[C@H]3CC[C@]12C` [25-hydroxycholesterol]: the “toxicity for neuron cells” value was “toxic for neuron cells in vitro”.
As to `CC(C)C(O)CC[C@@H](C)[C@H]1CC[C@H]2[C@@H]3CC=C4C[C@@H](O)CC[C@]4(C)[C@H]3CC[C@]12C` (some centres unmarked) [24-hydroxycholesterol], the “toxicity for neuron cells” value is given as “toxic for neuron cells in vitro”.
